Laboratory results published in article PMC12774438, “CBL ubiquitin ligase targets translation as a degrader E3” (Chemical Science, 2025).
Where a SMILES comes first, the peptide text is derived from it.

B1: eIFTerminator1-CBL binary complex (complex)
chain 1: KKRYSREFLLGFGGSGMTVEEMDSWIKSWDQM
chain 2: PPGTVDKKMVEKCWKLMDKVVRLCQNPKLALKNSPPYILDLLPDTYQHLRTILSRYEGKMETLGENEYFRVFMENLMKKTKQTISLFKEGKERMYEENSQPRRNLTKLSLIFSHMLAELKGIFPSGLFQGDTFRITKADAAEFWRKAFGEKTIVPWKSFRQALHEVHPISSGLEAMALKSTIDLTCNDYISVFEFDIFTRLFQPWSSLLRNWNSLAVTHPGYMAFLTYDEVKARLQKFIHKPGSYIFRLSCTRLGQWAIGYVTADGNILQTIPHNKPLFQALIDGFREGFYLFPDGRNQNPDLTGLCEPTPQDHIKVTQEQYELYCEMGSTFQLCKICAENDKDVKIEPCGHLMCTSCLTSWQESEGQGCPFCRCEIKGTEPIVVDPFD
B2: eIFTerminator2-CBL binary complex (complex)
chain 1: KKRYSREFLLGFGGSGGSGGSGMTVEEMDSWIKSWDQM
chain 2: PPGTVDKKMVEKCWKLMDKVVRLCQNPKLALKNSPPYILDLLPDTYQHLRTILSRYEGKMETLGENEYFRVFMENLMKKTKQTISLFKEGKERMYEENSQPRRNLTKLSLIFSHMLAELKGIFPSGLFQGDTFRITKADAAEFWRKAFGEKTIVPWKSFRQALHEVHPISSGLEAMALKSTIDLTCNDYISVFEFDIFTRLFQPWSSLLRNWNSLAVTHPGYMAFLTYDEVKARLQKFIHKPGSYIFRLSCTRLGQWAIGYVTADGNILQTIPHNKPLFQALIDGFREGFYLFPDGRNQNPDLTGLCEPTPQDHIKVTQEQYELYCEMGSTFQLCKICAENDKDVKIEPCGHLMCTSCLTSWQESEGQGCPFCRCEIKGTEPIVVDPFD
B3: eIFTerminator3-CBL binary complex (complex)
chain 1: MTVEEMDSWIKSWDQMGGSGKKRYSREFLLGF
chain 2: PPGTVDKKMVEKCWKLMDKVVRLCQNPKLALKNSPPYILDLLPDTYQHLRTILSRYEGKMETLGENEYFRVFMENLMKKTKQTISLFKEGKERMYEENSQPRRNLTKLSLIFSHMLAELKGIFPSGLFQGDTFRITKADAAEFWRKAFGEKTIVPWKSFRQALHEVHPISSGLEAMALKSTIDLTCNDYISVFEFDIFTRLFQPWSSLLRNWNSLAVTHPGYMAFLTYDEVKARLQKFIHKPGSYIFRLSCTRLGQWAIGYVTADGNILQTIPHNKPLFQALIDGFREGFYLFPDGRNQNPDLTGLCEPTPQDHIKVTQEQYELYCEMGSTFQLCKICAENDKDVKIEPCGHLMCTSCLTSWQESEGQGCPFCRCEIKGTEPIVVDPFD

target: T1, His-eIF4E (UniProt P06730 1-217); experiment: SPR; His-eIF4E immobilised; dilution series of eIFTerminator with a fixed, saturating concentration of CBL (1 µM) as analyte; steady-state affinities, ternary complex; settings: both partners purified
T1 construct: eukaryotic translation initiation factor 4E (eIF4E); Immobilised on the SPR chip; also called eukaryotic translation initiation factor 4E; source: recombinant
T1 sequence (P06730 whole entry): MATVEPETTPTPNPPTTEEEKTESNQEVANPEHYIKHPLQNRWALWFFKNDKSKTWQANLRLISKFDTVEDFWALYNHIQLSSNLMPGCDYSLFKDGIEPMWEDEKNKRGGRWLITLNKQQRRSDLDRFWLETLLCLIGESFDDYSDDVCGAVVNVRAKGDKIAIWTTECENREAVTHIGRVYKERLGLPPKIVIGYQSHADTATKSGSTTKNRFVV

Molecule | Kd [nM]
B1 | 77.8
B2 | 60.7
B3 | 81.8

target: T2, His-eIF4E (Homo sapiens, UniProt P06730); experiment: SPR binary binding of peptides to immobilised His-eIF4E; settings: 25°C, ligand His-eIF4E amine-coupled to CM5 chip, steady-state affinity, analyte 0.005859-0.75 µM, n = 3, mean ± SD
T2 construct: made in house; host or cells: E. coli BL21(DE3) Gold
T2 sequence (P06730 whole entry): as above
Protocol: Supplementary Figure 4. Related to Table 2
A. Sensorgrams (left) and binding curves (right) showing a three-fold dilution series […]
over immobilised eIF4E. […]
(1 picture or pasted object on this page, not shown here) […]
Data were analysed by […] affinity analysis using Cytiva Biacore TM Insight Evaluation Software. Sensorgrams for figures were made using GraphPad Prism 9.5.1.
Studying the interactions between eIF4E and eIFTerminator1-4
His-eIF4E protein was immobilised on Cytiva’s sensor chip CM5 using amine-coupling. The chip was docked and primed in running buffer (50 mM HEPES pH 7.5, 100 mM NaCl, 1 mM TCEP, 0.05% Tween20). Cytiva’s amine-coupling kit was used to capture the ligand. Briefly, 0.4 M EDC and 0.1 M NHS from the kit were mixed 50:50 and injected to activate the chip surface for 300 s at 10 μL/min. His-eIF4E was prepared for amine coupling as described previously (15). After achieving a capture level of approximately 120 RU, the remaining binding sites were blocked with ethanolamine hydrochloride-NaOH (pH 8.5) from the kit for 420 s at a flow rate of 10 μL/min. Reference surfaces were prepared in duplicates […]
Multi-cycle experiments were performed to gain steady-state binding affinity of eIFTerminator1-4 to His-eIF4E. At a flow rate of 30 μL/min, 20 startups with a 30 s contact time and a 30 s dissociation time were done prior to sample injection. An 8-point, 1 in 2 dilution series of eIFTerminator1-4 or eIF4G1-D5S peptide was injected (0.005859 – 0.75 μM) with a 100 s contact time and a 250 s dissociation time at a flow rate of 30 μL/min. The peptides were dissolved in running buffer and filtered using Coster Spin-X 0.22 μM centrifuge tube filters as described above. […]

Molecule | Kd [nM]
CC[C@H](C)[C@H](NC(=O)[C@H](Cc1c[nH]c2ccccc12)NC(=O)[C@H](CO)NC(=O)[C@H](CC(=O)O)NC(=O)[C@H](CCSC)NC(=O)[C@H](CCC(=O)O)NC(=O)[C@H](CCC(=O)O)NC(=O)[C@@H](NC(=O)[C@@H](NC(=O)[C@@H](N)CCSC)[C@@H](C)O)C(C)C)C(=O)N[C@@H](CCCCN)C(=O)N[C@@H](CO)C(=O)N[C@@H](Cc1c[nH]c2ccccc12)C(=O)N[C@@H](CC(=O)O)C(=O)N[C@@H](CCC(N)=O)C(=O)N[C@@H](CCCNC(=N)N)C(=O)NCC(=O)NCC(=O)N[C@@H](CO)C(=O)NCC(=O)N[C@@H](CCCCN)C(=O)N[C@@H](CCCCN)C(=O)N[C@@H](CCCNC(=N)N)C(=O)N[C@@H](Cc1ccc(O)cc1)C(=O)N[C@@H](CO)C(=O)N[C@@H](CCCNC(=N)N)C(=O)N[C@@H](CCC(=O)O)C(=O)N[C@@H](Cc1ccccc1)C(=O)N[C@@H](CC(C)C)C(=O)N[C@@H](CC(C)C)C(=O)NCC(=O)N[C@@H](Cc1ccccc1)C(N)=O [eIFTerminator2] (H-MTVEEMDSWIKSWDQRGGSGKKRYSREFLLGF-NH2) | 67.5 ± 7.4
CC[C@H](C)[C@H](NC(=O)[C@H](Cc1c[nH]c2ccccc12)NC(=O)[C@H](CO)NC(=O)[C@H](CC(=O)O)NC(=O)[C@H](CCSC)NC(=O)[C@H](CCC(=O)O)NC(=O)[C@H](CCC(=O)O)NC(=O)[C@@H](NC(=O)[C@@H](NC(=O)[C@@H](N)CCSC)[C@@H](C)O)C(C)C)C(=O)N[C@@H](CCCCN)C(=O)N[C@@H](CO)C(=O)N[C@@H](Cc1c[nH]c2ccccc12)C(=O)N[C@@H](CC(=O)O)C(=O)N[C@@H](CCC(N)=O)C(=O)N[C@@H](CCCNC(=N)N)C(=O)NCC(=O)NCC(=O)N[C@@H](CO)C(=O)NCC(=O)NCC(=O)N[C@@H](CO)C(=O)NCC(=O)NCC(=O)N[C@@H](CO)C(=O)NCC(=O)N[C@@H](CCCCN)C(=O)N[C@@H](CCCCN)C(=O)N[C@@H](CCCNC(=N)N)C(=O)N[C@@H](Cc1ccc(O)cc1)C(=O)N[C@@H](CO)C(=O)N[C@@H](CCCNC(=N)N)C(=O)N[C@@H](CCC(=O)O)C(=O)N[C@@H](Cc1ccccc1)C(=O)N[C@@H](CC(C)C)C(=O)N[C@@H](CC(C)C)C(=O)NCC(=O)N[C@@H](Cc1ccccc1)C(N)=O [eIFTerminator4] (H-MTVEEMDSWIKSWDQRGGSGGSGGSGKKRYSREFLLGF-NH2) | 60.6 ± 8.5
CC[C@H](C)[C@H](NC(=O)[C@H](Cc1c[nH]c2ccccc12)NC(=O)[C@H](CO)NC(=O)[C@H](CC(=O)O)NC(=O)[C@H](CCSC)NC(=O)[C@H](CCC(=O)O)NC(=O)[C@H](CCC(=O)O)NC(=O)[C@@H](NC(=O)[C@@H](NC(=O)[C@H](CCSC)NC(=O)CNC(=O)[C@H](CO)NC(=O)CNC(=O)CNC(=O)[C@H](Cc1ccccc1)NC(=O)CNC(=O)[C@H](CC(C)C)NC(=O)[C@H](CC(C)C)NC(=O)[C@H](Cc1ccccc1)NC(=O)[C@H](CCC(=O)O)NC(=O)[C@H](CCCNC(=N)N)NC(=O)[C@H](CO)NC(=O)[C@H](Cc1ccc(O)cc1)NC(=O)[C@H](CCCNC(=N)N)NC(=O)[C@H](CCCCN)NC(=O)[C@@H](N)CCCCN)[C@@H](C)O)C(C)C)C(=O)N[C@@H](CCCCN)C(=O)N[C@@H](CO)C(=O)N[C@@H](Cc1c[nH]c2ccccc12)C(=O)N[C@@H](CC(=O)O)C(=O)N[C@@H](CCC(N)=O)C(=O)N[C@@H](CCCNC(=N)N)C(N)=O [eIFTerminator1] (H-KKRYSREFLLGFGGSGMTVEEMDSWIKSWDQR-NH2) | 54 ± 9
CC(C)C[C@H](NC(=O)[C@H](CC(C)C)NC(=O)[C@H](Cc1ccccc1)NC(=O)[C@H](CCC(=O)O)NC(=O)[C@H](CCCNC(=N)N)NC(=O)[C@H](CO)NC(=O)[C@H](Cc1ccc(O)cc1)NC(=O)[C@H](CCCNC(=N)N)NC(=O)[C@H](CCCCN)NC(=O)[C@@H](N)CCCCN)C(=O)NCC(=O)N[C@@H](Cc1ccccc1)C(N)=O [eIF4G1-D5S] (H-KKRYSREFLLGF-NH2) | 38.9 ± 6.5
CC[C@H](C)[C@H](NC(=O)[C@H](Cc1c[nH]c2ccccc12)NC(=O)[C@H](CO)NC(=O)[C@H](CC(=O)O)NC(=O)[C@H](CCSC)NC(=O)[C@H](CCC(=O)O)NC(=O)[C@H](CCC(=O)O)NC(=O)[C@@H](NC(=O)[C@@H](NC(=O)[C@H](CCSC)NC(=O)CNC(=O)[C@H](CO)NC(=O)CNC(=O)CNC(=O)[C@H](CO)NC(=O)CNC(=O)CNC(=O)[C@H](CO)NC(=O)CNC(=O)CNC(=O)[C@H](Cc1ccccc1)NC(=O)CNC(=O)[C@H](CC(C)C)NC(=O)[C@H](CC(C)C)NC(=O)[C@H](Cc1ccccc1)NC(=O)[C@H](CCC(=O)O)NC(=O)[C@H](CCCNC(=N)N)NC(=O)[C@H](CO)NC(=O)[C@H](Cc1ccc(O)cc1)NC(=O)[C@H](CCCNC(=N)N)NC(=O)[C@H](CCCCN)NC(=O)[C@@H](N)CCCCN)[C@@H](C)O)C(C)C)C(=O)N[C@@H](CCCCN)C(=O)N[C@@H](CO)C(=O)N[C@@H](Cc1c[nH]c2ccccc12)C(=O)N[C@@H](CC(=O)O)C(=O)N[C@@H](CCC(N)=O)C(=O)N[C@@H](CCCNC(=N)N)C(N)=O [eIFTerminator3] (H-KKRYSREFLLGFGGSGGSGGSGMTVEEMDSWIKSWDQR-NH2) | 39.5 ± 3.4
